# US12065399B2, “Arylsulfonamide derivatives” (Hoffmann-La Roche Inc., priority 2019, dated 2024)
# Where a name gives a salt, the structure may show the parent alone.
# Molecular target: human mGlu4 receptor (Homo sapiens (Human), UniProt Q14833)
# Assay: Intracellular Ca2+ mobilization assay (FLIPR), mGlu4 NAM
# Format: cell-based
# Conditions: HEK-293 cells stably transfected with human mGlu4; inhibition of L-AP4 (EC80) response; IC50
# Experimental: 2.1) Intracellular Ca^2+ Mobilization Assay (FLIPR)
# A monoclonal HEK-293 cell line stably transfected with a cDNA encoding for the human mGlu4 receptor was generated. Cells were cultured according to standard protocols (Freshney, 2000) in Dulbecco's Modified Eagle Medium with high glucose supplemented with 1 mM glutamine, 10% (vol/vol) heat-inactivated bovine calf serum, penicillin/streptomycin, 50 μg/ml hygromycin and 15 μg/ml blasticidin (all cell culture reagents and antibiotics from Invitrogen, Basel, Switzerland).
# About 24 hrs before an experiment, 5×10^4 cells/well were seeded in poly-D-lysine coated, black/clear-bottomed 96-well plates. The cells were loaded with 2.5 μM Fluo-4AM in loading buffer (1×HBSS, 20 mM HEPES) for 1 hr at 37° C. and washed five times with loading buffer. The cells were transferred into a Functional Drug Screening System 7000 (Hamamatsu, Paris, France), and 11 half logarithmic serial dilutions of test compound at 37° C. were added and the cells were incubated for 10-30 min. with on-line recording of fluorescence. Following this pre-incubation step, the agonist (2S)-2-amino-4-phosphonobutanoic acid (L-AP4) was added to the cells at a concentration corresponding to EC80 with on-line recording of fluorescence; in order to account for day-to-day variations in the responsiveness of cells, the EC80 of L-AP4 was determined immediately ahead of each experiment by recording of a full dose-response curve of L-AP4.
# Responses were measured as peak increase in fluorescence minus basal (i.e. fluorescence without addition of L-AP4), normalized to the maximal stimulatory effect obtained with saturating concentrations of L-AP4. Graphs were plotted with the % maximal stimulatory using XLfit, a curve fitting program that iteratively plots the data using Levenburg Marquardt algorithm. The single site competition analysis equation used was y=A+((B-A)/(1+((x/C)D))), where y is the % maximal stimulatory effect, A is the minimum y, B is the maximum y, C is the IC50, x is the log 10 of the concentration of the competing compound and D is the slope of the curve (the Hill Coefficient). From these curves the IC50 (drug concentration at which 50% of the receptor activation achieved from the addition of L-AP4 in the experiment was inhibited), the Hill coefficient as well as the maximal response in % of the maximal stimulatory effect obtained with saturating concentrations of L-AP4 were calculated (see FIG. 1).
# Sequence of human mGlu4 receptor (Q14833 33-912): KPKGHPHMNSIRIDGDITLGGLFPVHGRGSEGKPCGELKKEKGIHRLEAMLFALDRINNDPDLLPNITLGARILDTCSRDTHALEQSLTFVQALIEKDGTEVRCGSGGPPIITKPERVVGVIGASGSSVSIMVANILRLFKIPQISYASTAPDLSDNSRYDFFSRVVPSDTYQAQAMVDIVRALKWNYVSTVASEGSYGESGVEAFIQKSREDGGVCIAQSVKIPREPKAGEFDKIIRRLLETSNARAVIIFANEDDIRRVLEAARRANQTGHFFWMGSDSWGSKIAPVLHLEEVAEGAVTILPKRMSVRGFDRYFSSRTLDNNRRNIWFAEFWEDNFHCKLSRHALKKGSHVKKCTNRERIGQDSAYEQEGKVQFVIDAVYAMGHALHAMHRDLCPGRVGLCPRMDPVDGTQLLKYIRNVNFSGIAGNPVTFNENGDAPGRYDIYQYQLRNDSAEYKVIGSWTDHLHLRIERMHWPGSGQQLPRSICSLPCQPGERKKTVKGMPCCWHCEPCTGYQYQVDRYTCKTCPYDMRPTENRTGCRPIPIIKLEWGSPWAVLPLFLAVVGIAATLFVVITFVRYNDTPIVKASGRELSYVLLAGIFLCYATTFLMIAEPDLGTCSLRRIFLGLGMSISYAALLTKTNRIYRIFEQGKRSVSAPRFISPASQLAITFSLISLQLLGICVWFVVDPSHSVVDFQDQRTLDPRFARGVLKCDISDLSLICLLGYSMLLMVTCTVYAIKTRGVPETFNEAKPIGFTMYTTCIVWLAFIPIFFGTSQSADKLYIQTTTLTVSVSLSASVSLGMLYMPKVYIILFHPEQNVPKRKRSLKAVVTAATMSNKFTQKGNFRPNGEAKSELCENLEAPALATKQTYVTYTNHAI
row,SMILES,EC50 [nM]
1,"Cn1nccc1S(=O)(=O)Nc1c(F)cc(C#Cc2cncc(F)c2)cc1F [Example 39, N-[2,6-difluoro-4-[2-(5-fluoro-3-pyridyl)ethynyl]phenyl]-2-methyl-pyrazole-3-sulfonamide; 2,2,2-trifluoroacetic acid salt]",10500
2,"O=S(=O)(Nc1c(F)cc(C#Cc2ccccc2)cc1F)c1ccc(Cl)cc1Cl [Example 11, 2,4-dichloro-N-[2,6-difluoro-4-(2-phenylethynyl)phenyl]benzenesulfonamide]",15700
3,"Cc1cc(F)c(C)c(S(=O)(=O)Nc2c(F)cc(C#Cc3ccccc3)cc2F)c1 [Example 40, N-[2,6-difluoro-4-(2-phenylethynyl)phenyl]-3-fluoro-2,5-dimethyl-benzenesulfonamide]",808
4,"CC(C)(C)c1cnn(-c2cc(F)c(NS(=O)(=O)c3ccccc3Cl)c(F)c2)c1 [Example 58, N-[4-(4-tert-butylpyrazol-1-yl)-2,6-difluoro-phenyl]-2-chloro-benzenesulfonamide]",13000
5,"COc1cccc(S(=O)(=O)Nc2c(F)cc(C#Cc3ccccc3)cc2F)c1Cl [Example 27, 2-chloro-N-[2,6-difluoro-4-(2-phenylethynyl)phenyl]-3-methoxy-benzenesulfonamide]",8430
6,"Cc1c(Cl)cccc1S(=O)(=O)Nc1c(F)cc(C#Cc2cncc(Cl)c2)cc1F [Example 55, 3-chloro-N-(4-((5-chloropyridin-3-yl)ethynyl)-2,6-difluorophenyl)-2-methylbenzenesulfonamide]",1920
7,"Cc1ccncc1S(=O)(=O)Nc1c(F)cc(C#Cc2ccccc2)cc1F [Example 31, N-[2,6-difluoro-4-(2-phenylethynyl)phenyl]-4-methyl-pyridine-3-sulfonamide]",1400
8,"Cc1ccc(Cl)c(S(=O)(=O)Nc2c(F)cc(C#Cc3ccccc3)cc2F)c1 [Example 19, 2-chloro-N-[2,6-difluoro-4-(2-phenylethynyl)phenyl]-5-methyl-benzenesulfonamide]",1260
9,"Cc1cc(F)c(C)c(S(=O)(=O)Nc2c(F)cc(C#Cc3cncc(F)c3)cc2F)c1 [Example 38, N-[2,6-difluoro-4-[2-(5-fluoro-3-pyridyl)ethynyl]phenyl]-3-fluoro-2,5-dimethyl-benzenesulfonamide; 2,2,2-trifluoroacetic acid salt]",434
10,"Cc1c(Cl)cccc1S(=O)(=O)Nc1c(F)cc(C#Cc2cncc(F)c2)cc1F [Example 52, 3-chloro-N-[2,6-difluoro-4-[2-(5-fluoro-3-pyridyl)ethynyl]phenyl]-2-methyl-benzenesulfonamide]",761
11,"COc1ccc(Cl)c(S(=O)(=O)Nc2c(F)cc(C#Cc3ccccc3)cc2F)c1 [Example 18, 2-chloro-N-[2,6-difluoro-4-(2-phenylethynyl)phenyl]-5-methoxy-benzenesulfonamide]",3940
12,"Cn1nccc1S(=O)(=O)Nc1c(F)cc(C#Cc2ccccc2)cc1F [Example 25, N-[2,6-difluoro-4-(2-phenylethynyl)phenyl]-1-methyl-1H-pyrazole-5-sulfonamide]",1060
13,"Cc1cc(F)c(C)c(S(=O)(=O)Nc2c(F)cc(C#Cc3cccc(F)c3)cc2F)c1 [Example 45, N-[2,6-difluoro-4-[2-(3-fluorophenyl)ethynyl]phenyl]-3-fluoro-2,5-dimethyl-benzenesulfonamide]",1320
14,"Cc1cccc(S(=O)(=O)Nc2c(F)cc(C#Cc3ccccc3)cc2F)c1 [Example 36, N-[2,6-difluoro-4-(2-phenylethynyl)phenyl]-3-methyl-benzenesulfonamide]",5020
15,"O=S(=O)(Nc1c(F)cc(C#Cc2ccccc2)cc1F)c1cccc2ncoc12 [Example 34, N-[2,6-difluoro-4-(2-phenylethynyl)phenyl]-1,3-benzoxazole-7-sulfonamide]",6560
16,"COc1cccc(C#Cc2cc(F)c(NS(=O)(=O)c3cc(C)cc(F)c3C)c(F)c2)c1 [Example 47, N-[2,6-difluoro-4-[2-(3-methoxyphenyl)ethynyl]phenyl]-3-fluoro-2,5-dimethyl-benzenesulfonamide]",1050
17,"Cc1cc(F)c(C)c(S(=O)(=O)Nc2c(F)cc(C#Cc3cccnc3)cc2F)c1 [Example 50, N-[2,6-difluoro-4-[2-(3-pyridyl)ethynyl]phenyl]-3-fluoro-2,5-dimethyl-benzenesulfonamide]",274

row,SMILES,EC50 [nM]
1,"COc1cccc(C#Cc2cc(F)c(NS(=O)(=O)c3cccc(Cl)c3C)c(F)c2)c1 [Example 42, 3-chloro-N-[2,6-difluoro-4-[2-(3-methoxyphenyl)ethynyl]phenyl]-2-methyl-benzenesulfonamide]",1320
2,"Cc1cc(F)c(C)c(S(=O)(=O)Nc2c(F)cc(C#Cc3cc(F)cc(F)c3)cc2F)c1 [Example 49, N-[4-[2-(3,5-difluorophenyl)ethynyl]-2,6-difluoro-phenyl]-3-fluoro-2,5-dimethyl-benzenesulfonamide]",902
3,"O=S(=O)(Nc1c(F)cc(C#Cc2ccccc2)cc1F)c1cncc(F)c1 [Example 24, N-[2,6-difluoro-4-(2-phenylethynyl)phenyl]-5-fluoropyridine-3-sulfonamide]",2050
4,"Cc1cccc(S(=O)(=O)Nc2c(F)cc(C#Cc3ccccc3)cc2F)c1Cl [Example 16, 2-chloro-N-[2,6-difluoro-4-(2-phenylethynyl)phenyl]-3-methyl-benzenesulfonamide]",1560
5,"CC(C)(C)c1cnn(-c2cc(F)c(NS(=O)(=O)c3cc(Cl)cc(Cl)c3)c(F)c2)c1 [Example 60, N-[4-(4-tert-butylpyrazol-1-yl)-2,6-difluoro-phenyl]-3,5-dichloro-benzenesulfonamide]",6720
6,"O=S(=O)(Nc1c(F)cc(C#Cc2ccccc2)cc1F)c1ccccc1C(F)(F)F [Example 3, N-[2,6-difluoro-4-(2-phenylethynyl)phenyl]-2-(trifluoromethyl)benzenesulfonamide]",2810
7,"O=S(=O)(Nc1c(F)cc(C#Cc2ccccc2)cc1F)c1cc(Cl)ccc1Cl [Example 4, 2,5-dichloro-N-[2,6-difluoro-4-(2-phenylethynyl)phenyl]benzenesulfonamide]",3430
8,"Cc1cc(F)c(C)c(S(=O)(=O)Nc2c(F)cc(C#Cc3cccc(O)c3)cc2F)c1 [Example 61, N-[2,6-difluoro-4-[2-(3-hydroxyphenyl)ethynyl]phenyl]-3-fluoro-2,5-dimethyl-benzenesulfonamide]",992
9,"Cc1c(Cl)cc(F)cc1S(=O)(=O)Nc1c(F)cc(C#Cc2cncc(F)c2)cc1F [Example 53, 3-chloro-N-[2,6-difluoro-4-[2-(5-fluoro-3-pyridyl)ethynyl]phenyl]-5-fluoro-2-methyl-benzenesulfonamide]",523
10,"Cc1c(C(F)(F)F)cccc1S(=O)(=O)Nc1c(F)cc(C#Cc2ccccc2)cc1F [Example 28, N-[2,6-difluoro-4-(2-phenylethynyl)phenyl]-2-methyl-3-(trifluoromethyl)benzenesulfonamide]",1950
11,"O=S(=O)(Nc1c(F)cc(C#Cc2ccccc2)cc1F)c1cccnc1 [Example 7, N-[2,6-difluoro-4-(2-phenylethynyl)phenyl]pyridine-3-sulfonamide]",4670
12,"Cc1c(F)cccc1S(=O)(=O)Nc1c(F)cc(C#Cc2ccccc2)cc1F [Example 37, N-[2,6-difluoro-4-(2-phenylethynyl)phenyl]-3-fluoro-2-methyl-benzenesulfonamide]",1050
13,"O=S(=O)(Nc1c(F)cc(C#Cc2ccccc2)cc1F)c1cccc(Cl)c1Cl [Example 2, 2,3-dichloro-N-[2,6-difluoro-4-(2-phenylethynyl)phenyl]benzenesulfonamide]",1680
14,"Cc1c(Cl)cccc1S(=O)(=O)Nc1c(F)cc(C#Cc2ccccc2)cc1F [Example 20, 3-chloro-N-[2,6-difluoro-4-(2-phenylethynyl)phenyl]-2-methyl-benzenesulfonamide]",1080
15,"O=S(=O)(Nc1c(F)cc(C#Cc2ccccc2)cc1F)c1cccc(Cl)c1 [Example 8, 3-chloro-N-[2,6-difluoro-4-(2-phenylethynyl)phenyl]benzenesulfonamide]",5920
16,"COCc1c(Cl)cccc1S(=O)(=O)Nc1c(F)cc(C#Cc2ccccc2)cc1F [Example 32, 3-chloro-N-[2,6-difluoro-4-(2-phenylethynyl)phenyl]-2-(methoxymethyl)benzenesulfonamide]",3880
17,"O=S(=O)(Nc1c(F)cc(C#Cc2ccccc2)cc1F)c1cccc(Cl)c1F [Example 35, 3-chloro-N-[2,6-difluoro-4-(2-phenylethynyl)phenyl]-2-fluoro-benzenesulfonamide]",1610
